Data set [1] deals with bean weevil Callosobruchus maculatus. Description: Pesticidal activity in a closed space on adult weevil (LC50). Type of data set: in vivo. As to the method:
(§1) The pesticidal activity of the extracts is measured in a closed space on adult insects. Each value represents the mean of three experiments, each involving 30 insects representative of three different insect orders: • lepidoptera (the clothes moth Tineola bisselliella), • isoptera (the Saintonge termite Reticulitermes santonensis), and • coleoptera (the bean weevil Callosobruchus maculatus)

For data set [2], the system named is clothes moth Tineola bisselliella. Kind of data set: whole plant or invertebrate. It counts as in vivo. Conditions: for LC50: Tineola bisselliella; for insecticidal activity: closed space, insects tested. As for the experimental part:
as §1

For data set [3] the following is noted: ambient temperature storage; cited from earlier work.
Setting [4] is: adult insects, closed space, 24 h of treatment, NQ = non-quantifiable due to the absence of activity, read-out: Weevil LC50.

Values after ≈ are worked out from the molar mass of the structure shown. Where two headings read alike, the source gives them in different places.

Turning to `C=CCSSCC=C` [DAS2, diallyl disulfide], the median lethal concentration (LC50) (usually the concentration lethal to half of the exposed cells or organisms) was 0.5 µg/mL (≈ 3.42 µM) in data set [1] (adult insects, closed space, 24 h, NQ = no activity, read-out: Weevil LC50 observed); 0.5 µg/mL (≈ 3.42 µM) in data set [1] (setting [4]); 0.5 µg/mL (≈ 3.42 µM) in data set [1] (theoretical, from total DASn content compared with DAS2 activity, read-out: Weevil LC50 calculated); 0.02 µg/mL (≈ 0.137 µM) in data set [2] (24 h, read-out: Mite LC50); 0.02 µg/mL (≈ 0.137 µM) in data set [2] (24 h, read-out: Mite LC50 observed); 0.02 µg/mL (≈ 0.137 µM) in data set [2] (read-out: Mite LC50 calculated). For the same molecule, the “insecticidal activity” value in data set [2] is recorded as “show an insecticidal activity”.
Turning to `C=CCS[S+]([O-])CC=C` (stereo not shown) [TiA2, allicin], the LC50 in data set [1] (setting [4]) came out at 0.16 µg/mL (≈ 0.986 µM). In addition, the “insecticidal activity” value in data set [2] is listed as “show an insecticidal activity”. For the same molecule, the “stability at ambient temperature” value in data set [3] was “low stability”.

Values taken from patent US20080214678A1, “Biopesticide Comprising a Composition Rich in Diallyl Polysulphides” (priority 2003, published 2008).
